Results taken from patent publication US5739273A, “Transmembrane polypeptide and methods of use” (Yale University, priority 1994, dated 1998).
Residues, ends and D or L forms follow the SMILES beside them.

Assay: circular dichroism titration in the presence of small unilamellar phospholipid vesicles
Assay type: physicochemical
Settings: circular dichroism at 222 nanometers vs pH, DMPC small unilamellar vesicles
Excerpt: FIG. 5A is a graph showing the circular dichroism analysis of the synthetic polypeptide of FIG. 1 in the presence of dimyristoyl phosphatidylcholine (DMPC) vesicles at various pH values. The black squares indicate the initial titration (down). The open circles indicate the reverse titration (up). The open triangles indicate the second titration (down).
The well-known spectroscopic technique of polarized infrared linear dichroism is used to determine the orientation of the alpha-helical domain of the polypeptide. The orientation of the polypeptide in protein/phospholipid multilayers is inferred from the dichroism of two amide vibrations.
FIG. 5A is a graph showing circular dichroism titration of the synthetic polypeptide having the amino acid sequence set forth in FIG. 1 and sequence listing identification number 1, in the presence of a solution containing small unilamellar phospholipid vesicles made from synthetic dimyristoyl phosphatidylcholine. The y axis is millidegrees at 222 nanometers, and the x axis is pH. […] FIG. 5B is a corresponding control graph showing circular dichroism titration of the polypeptide in the […] of lipid molecules.

CC[C@H](C)[C@H](NC(=O)[C@@H]1CCCN1C(=O)[C@H](CC(N)=O)NC(=O)[C@H](CCC(N)=O)NC(=O)[C@H](CCC(=O)O)NC(=O)CNC(=O)CN)C(=O)N[C@@H](Cc1ccc(O)cc1)C(=O)N[C@@H](Cc1c[nH]c2ccccc12)C(=O)N[C@@H](C)C(=O)N[C@@H](CCCNC(=N)N)C(=O)N[C@@H](Cc1ccc(O)cc1)C(=O)N[C@@H](C)C(=O)N[C@@H](CC(=O)O)C(=O)N[C@@H](Cc1c[nH]c2ccccc12)C(=O)N[C@@H](CC(C)C)C(=O)N[C@@H](Cc1ccccc1)C(=O)N[C@H](C(=O)N[C@H](C(=O)N1CCC[C@H]1C(=O)N[C@@H](CC(C)C)C(=O)N[C@@H](CC(C)C)C(=O)N[C@@H](CC(C)C)C(=O)N[C@@H](CC(C)C)C(=O)N[C@@H](CC(=O)O)C(=O)N[C@@H](CC(C)C)C(=O)N[C@@H](C)C(=O)N[C@@H](CC(C)C)C(=O)N[C@@H](CC(C)C)C(=O)N[C@H](C(=O)N[C@@H](CC(=O)O)C(=O)N[C@@H](C)C(=O)N[C@@H](CC(=O)O)C(=O)N[C@@H](CCC(=O)O)C(=O)NCC(=O)N[C@H](C(=O)O)[C@@H](C)O)C(C)C)[C@@H](C)O)[C@@H](C)O [synthetic polypeptide] (H-GGEQNPIYWARYADWLFTTPLLLLDLALLVDADEGT-OH)
pKa of formation of a polypeptide alpha-helix: 6.0
